From the supplement of paper PMC7801607

tested on: Plasmodium falciparum Dd2 asexual blood stage

SMILES | IC50
CCCCCOc1ccc(/C=C2\Oc3c(ccc(O)c3O)C2=O)c(O)c1 | > 5 µM
CN(C/C=C/C#CC(C)(C)C)Cc1cccc2ccccc12 | > 5 µM
O=C(O)/C=C/C=C/c1cccc(Oc2cc(Cl)cc(Cl)c2)c1 | > 5 µM
O=C(Cn1cnc2ccccc2c1=O)Nc1ccccc1 | > 5 µM
C[C@H]1CC[C@]2(NC1)O[C@H]1C[C@H]3[C@@H]4CC[C@H]5C[C@@H](O)CC[C@]5(C)[C@H]4CC[C@]3(C)[C@H]1[C@@H]2C | > 5 µM
CC(=N)N1CC[C@H](SC2=C(C(=O)O)N3C(=O)[C@@H]([C@@H](C)O)[C@H]3C2)C1 | > 5 µM
Nc1nc(N)c2c(Sc3ccccc3)cccc2n1 | > 5 µM
Cc1cc(C)n2nc(C(=O)NS(=O)(=O)c3c(C)cccc3OC(F)(F)F)nc2n1 | > 5 µM
Nc1nc(NC2Cc3ccc(F)cc3C2)nc(N2CCCCC2)n1 (configuration not stated) | > 5 µM
O=c1ccc2ncc(=O)n3c2n1CC3CN1CCC(NCc2cc3c(cn2)OCCC3)CC1 (configuration not stated) | > 5 µM
CCCCc1ccc(-c2cc(C(=O)O)cc(-c3ccc(Cl)cc3)n2)cc1 | > 5 µM
O=C1NC(=S)N/C1=C\c1cc(Br)cc(Br)c1O | > 5 µM
COc1cc(Cc2cc(N)nc(N)n2)cc(OC)c1OC | > 5 µM
COc1ccc(NS(=O)(=O)c2ccc(Cl)s2)cn1 | > 5 µM
COc1ccc(NC(=O)CC2Sc3ncnn3C2=O)cc1 (configuration not stated) | > 5 µM
OCCCCn1cnc2c(O)nc(NCc3ccc(Cl)c(Cl)c3)nc21 | > 5 µM
Oc1ccc2[nH]c(-c3ccccc3)nc2c1 | > 5 µM
COc1ccc(C[C@@H](C)[C@@H](C)Cc2ccc(OC)c(OC)c2)cc1OC | > 5 µM
Clc1cccc(-c2nnc(-c3ccccc3)o2)c1 | > 5 µM
Clc1cc2nc(C3CCNCC3)n(Cc3ccc(CNCCc4cnc[nH]4)cc3)c2cc1Cl | 2.41 µM
CN(C(=O)C1(c2ccc(Cl)cc2)CCC1)c1ccccc1 | > 5 µM

SMILES | IC50
O=c1nc(N2CCN(CC3CCCCC3)CC2)sc2c([N+](=O)[O-])cc(C(F)(F)F)cc12 | > 5 µM
O=C(CCCC(F)(F)F)N1CCC(c2nc(-c3nccs3)no2)CC1 | > 5 µM
O=C(NCCN1CCCCC1)c1cccc(C(F)(F)F)c1 | > 5 µM
O=C(Nc1ccccc1C(=O)O)c1cccc(Oc2ccccc2)c1 | > 5 µM
C[N+]1(C)CCCC(OC(=O)C(O)(c2ccccc2)c2ccccc2)C1 (configuration not stated) | > 5 µM
c1cc(CN2CCCNCCNCCCNCC2)ccc1CN1CCCNCCNCCCNCC1 | > 5 µM
COc1c(NC(=O)[C@H]2CC[C@@H](COc3ccc([N+](=O)[O-])cc3)CC2)c(F)cc2c(=O)c(C(=O)O)cn(C3CC3)c12 | > 5 µM
N[C@H]1CCC[C@H]1C(=O)O | > 5 µM
CCOC(=O)/C=C/[C@H](C[C@@H]1CCNC1=O)NC(=O)[C@@H](CC(=O)[C@@H](NC(=O)c1cc(C)on1)C(C)C)Cc1ccc(F)cc1 | > 5 µM
CC(Cc1ccccc1)C(=O)Nc1ccc(Cl)cc1C(=O)O (configuration not stated) | > 5 µM
O=C(CSc1nnc(Br)n1-c1ccc(C2CC2)c2ccccc12)Nc1ccc(C(=O)O)cc1Cl | > 5 µM
CO/N=C(\C(=O)N[C@@H]1C(=O)N2C(C(=O)OCOC(=O)C(C)(C)C)=C(/C=C\c3scnc3C)CS[C@H]12)c1csc(N)n1 | > 5 µM
O=C(Nc1ncc(Cc2cccc3ccccc23)s1)C1CCCCC1 | > 5 µM
COc1cc(Cc2cnc(N)nc2N)cc(OC)c1OC | > 5 µM
CCCCN1C[C@H](O)[C@@H](O)[C@H](O)[C@H]1CO | > 5 µM
O=C(c1cc(O)nc2ccccc12)N1CCN(c2ccccc2)CC1 | > 5 µM
CC(C)n1cnc2c(NCc3ccccc3)nc(NCc3ccccc3)nc21 | > 5 µM
N#Cc1cc([N+](=O)[O-])ccc1Oc1ccccc1Cl | > 5 µM
COCCn1cnc2c(=O)[nH]c(Nc3ccccc3)nc21 | > 5 µM
OB1OCc2cc(Cl)ccc21 | > 5 µM
CCN1CCN(Cc2nc3ccc([N+](=O)[O-])cc3c(=O)n2-c2ccccc2F)CC1 | > 5 µM

SMILES | IC50
CN(O)C(=O)c1cc2c(CN3CCC[C@H]3C(N)=O)cn(Cc3ccc(F)cc3)c2cn1 | > 5 µM
Cc1ncc([N+](=O)[O-])n1CC(O)CN1CCOCC1 (configuration not stated) | > 5 µM
CCNC(=O)Nc1cc2c(-c3ccnc(C)c3)ccc(CNC(=O)OC)c2cn1 | > 5 µM
O=c1[nH]c(=O)n(Cc2cccc(Oc3ccccc3)c2)cc1Nc1ccccc1 | > 5 µM
Oc1ccc(NCc2ccccc2OCc2ccccc2)cc1 | > 5 µM
Cc1c[nH]c(=O)nc1NCc1ccccc1 | > 5 µM
CN1c2ccc(Cl)cc2N(c2ccccc2)C(=O)c2cn(Cc3ccc(CN4CCOCC4)cc3)nc21 | > 5 µM
CO[C@@]1(NC(=O)Cc2cccs2)C(=O)N2C(C(=O)O)=C(COC(N)=O)CS[C@@H]21 | > 5 µM
O=c1cc(OCc2ccccc2)ccn1Cc1ccccc1 | > 5 µM
NC(=O)c1[nH]c2ccc(S(N)(=O)=O)cc2c1-c1ccccc1 | > 5 µM
O=C(Nc1[nH]c(=O)ncc1F)c1ccccc1 | > 5 µM
C[C@H](c1cccc2ccccc12)N(C)Cc1ccccc1 | > 5 µM
OCCC#Cc1nc(-c2ccc(F)cc2)c(-c2ccncc2)n1CCCc1ccccc1 | > 5 µM
CCCCc1ccc(-c2nc(C)c(C(=O)OC)s2)cc1 | > 5 µM
O=C(NC1CCCc2c1[nH]c1ccc(Cl)cc21)c1ccccn1 (configuration not stated) | > 5 µM
Cc1cc(NS(=O)(=O)c2ccc(-c3ccc(F)cc3F)cc2)no1 | > 5 µM
CCc1ccccc1OCCN1CCCCCC1 | > 5 µM
CC(N)C12CC3CC(CC(C3)C1)C2 (configuration not stated) | > 5 µM
O=C(Nc1ccc(-c2ccccc2)cc1)C1=C(O)C(Cc2ccccc2)OC1=O (configuration not stated) | > 5 µM
Nc1nc(O)c(Br)c(-c2ccccc2)n1 | > 5 µM

Now from value to compound:

IC50 | SMILES
> 5 µM | O=C(NC(=O)N1CCCc2ccccc21)c1cccc(Cl)c1
> 5 µM | CC(C)Oc1ccc(-n2cnc3cc(/C=C\c4ccc(C(C)(C)O)cc4)ccc32)cc1
> 5 µM | CC[C@H]1OC(=O)[C@H](C)[C@@H](O[C@H]2C[C@@](C)(OC)[C@@H](O)[C@H](C)O2)[C@H](C)[C@@H](O[C@@H]2O[C@H](C)C[C@H](N(C)C)[C@H]2O)[C@](C)(O)C[C@@H](C)C(=O)[C@H](C)[C@@H](O)[C@]1(C)O
> 5 µM | CCc1cc(CCCOc2c(C)cc(-c3noc(C(F)(F)F)n3)cc2C)on1
> 5 µM | COc1ccc(SCC(=O)N2c3ccccc3Sc3ccccc32)cc1
> 5 µM | CCOC(=O)N[C@@H]1CC[C@@H]2[C@@H](C1)C[C@H]1C(=O)O[C@H](C)[C@H]1[C@H]2/C=C/c1ccc(-c2cccc(F)c2)cn1
> 5 µM | NC[C@H]1OB(O)c2c(OCCCO)cccc21
> 5 µM | Cc1ccn2c(C(=O)NCc3ccccc3)c(C)nc2c1
> 5 µM | O=P(O)(O)C(CCCc1cccc(Oc2ccccc2)c1)S(=O)(=O)O (configuration not stated)
> 5 µM | CC(C)Nc1ncnc2c1cnn2-c1ccc(Cl)cc1
> 5 µM | O=c1cc(Nc2ccc3ccccc3c2)[nH]c(=O)[nH]1
> 5 µM | CC(C)(C)c1ccc(C(=O)NC(=O)N2CCCc3ccccc32)cc1
> 5 µM | CN(C)CC(=O)Nc1ccc2[nH]c(=O)c3ccccc3c2c1
> 5 µM | COC(=O)Nc1nc2cc(Sc3ccccc3)ccc2[nH]1
4.1 µM | Nc1nc(-c2ccccc2)nc2[nH]nc(Nc3ccc(C(F)(F)F)cc3)c12
> 5 µM | CC(C)(C)c1cccc(-c2nc3cc(C(=N)N)ccc3[nH]2)c1O
> 5 µM | O=C(NCc1cccc2ccccc12)c1cccs1
> 5 µM | CC1(C)Cc2c(C#N)c(SCCc3ccccc3)nc(N3CCOCC3)c2CO1
> 5 µM | CCCCCCCCCN1C[C@@H](O)[C@H](O)[C@@H](O)[C@@H]1CO
> 5 µM | Nc1nc2c(ncn2/C=C2/CC2(CO)CO)c(=O)[nH]1
> 5 µM | O=C(CP(=O)(O)O)NCCc1cccc(Oc2ccccc2)c1
> 5 µM | CCc1nc2ccc(Cl)cn2c1C(=O)NCc1ccc(N2CCC(c3ccc(OC(F)(F)F)cc3)CC2)cc1
> 5 µM | CCOC(=O)/C=C/[C@H](C[C@@H]1CCNC1=O)NC(=O)[C@H](CC)n1cccc(NC(=O)c2cc(C)on2)c1=O

IC50 | SMILES
> 5 µM | C[C@H](Cn1cnc2c(N)ncnc21)OCP(=O)(O)O
> 5 µM | COc1c(F)c(F)cc2c(=O)c(C(=O)O)cn(C3CC3)c12
> 5 µM | CC(Oc1ccc(Cl)cc1Cl)C(=O)NCc1ccc2c(c1)OCO2 (configuration not stated)
4.88 µM | CCCCCCCc1[nH]c2ccccc2c(=O)c1O
> 5 µM | CC#C[C@]1(O)CC[C@H]2[C@@H]3CCC4=CC(=O)CCC4=C3[C@@H](c3ccc(N(C)C)cc3)C[C@@]21C
> 5 µM | CCCCCCC1c2ccc(O)cc2Oc2cc(O)ccc21
> 5 µM | CC(=O)Nc1cc(NS(=O)(=O)c2ccc(Cl)cc2)cc2c(Cl)n[nH]c12
> 5 µM | CSc1ccc2c(c1)C(N1CCN(C)CC1)Cc1ccccc1S2 (configuration not stated)
> 5 µM | O=C(/C=C/n1cnc(-c2cc(C(F)(F)F)cc(C(F)(F)F)c2)n1)NNc1cnccn1
> 5 µM | O=S(=O)(Nc1cccc2cccnc12)c1ccccc1
4.6 µM | CC(C)(C)c1ccc(C(Cn2cccc(C(F)(F)F)c2=O)NC2Cc3ccccc3C2)cc1 (configuration not stated)
> 5 µM | N=C(N)c1ccc(COc2ccc(Cl)cc2)cc1
> 5 µM | CCNC(=O)Nc1cc(-c2ccccc2)c(-c2cncc(C(=O)O)c2)cn1
> 5 µM | COC(=O)Nc1nc2c(C)cccc2[nH]1
> 5 µM | COc1ccc(OCc2ccc(COc3c(Cl)cccc3Cl)cc2)c(Cl)c1
> 5 µM | COc1ccc2c(c1OC)C(=O)OC2C1c2c(cc3c(c2OC)OCO3)CCN1C (configuration not stated)
> 5 µM | CC[C@@H]1C(=O)OC[C@@H]1Cc1cncn1C
> 5 µM | OC[C@@H]1CC[C@H](n2cnc3c(O)ncnc32)O1
> 5 µM | O=S(=O)(Nc1ccc(-n2cccc2)cc1)c1ccc(Cl)c(Cl)c1
> 5 µM | CC1=C(/C=C/C(C)=C/C=C/C(C)=C/C(=O)Nc2ccc(O)cc2)C(C)(C)CCC1
> 5 µM | Cc1nc(-c2ccc(C3N(C)c4ccc(F)cc4C(=O)N3c3ccccc3)s2)cs1 (configuration not stated)
> 5 µM | Cc1ccc(C)c(OCCCCCCN2C[C@H](O)[C@@H](O)[C@H](O)[C@H]2CO)c1
